The values that follow come from ChEMBL document CHEMBL1155642, “In vitro antiplasmodial, antiamoebic, and cytotoxic activities of some monomeric isoquinoline alkaloids” (J Nat Prod, 2000).

The structures appear in SMILES notation. Where a name gives a salt, the structure may show the parent alone. Active and inactive are the calls of the source. The rule behind the calls is not given here.

One assay deals with KB. The experiment in a line: Cytotoxicity against human KB cells after 72 hrs. The assay is classed as functional, cell-based.
The test system of a further assay is Plasmodium falciparum. The experiment in a line: Antiplasmodial activity against multi drug-resistant Plasmodium falciparum K1 in erythrocytes by [3H]hypoxanthine uptake. The class given is functional, organism-based.
In assay [1] the test system is Entamoeba histolytica. The experiment in a line: Antiamoebic activity against Entamoeba histolytica NIH 200 after 72 hrs by microdilution technique. The class given is functional, organism-based. The conditions noted are these: NIH 200, 72 h. (Dilution methods test growth across graded concentrations, often in twofold steps.)
Assay [2] has as its system Entamoeba histolytica. Briefly: Antiamoebic activity against Entamoeba histolytica NIH 200 in guinea pig at 3 mg/kg, po. Also noted: dose 3 mg/kg. The assay is classed as functional, organism-based.
Assay [3] deals with Entamoeba histolytica. The experiment in a line: Antiamoebic activity against Entamoeba histolytica NIH 200 in guinea pig at 2 mg/kg, iv. The class given is functional, organism-based. Also noted: dose 2 mg/kg.

With `COc1ccc2c(c1O)-c1c(O)c(OC)cc3c1[C@H](C2)[N+](C)(C)CC3` [MAGNOFLORINE IODIDE], the values for the IC50 in the assay with KB, in the assay with Plasmodium falciparum and with Entamoeba histolytica [1] were more than 533 µM, more than 107 µM and 111 µM, respectively.
On to `COC1=C[C@]23CCN(C)[C@H](Cc4cc(OC)c(OC)cc42)C3=CC1=O` [O-METHYLFLAVINANTINE], for which the half-maximal inhibitory concentration (IC50) in the assay on KB is more than 734 µM; in the assay on Plasmodium falciparum it was 207 µM; in the assay with Entamoeba histolytica [1] it was 73.4 µM.
Taken in the same sequence, the figures for `COc1ccc2c(c1OC)[C@]13CCC(=O)[C@]4(O)O[C@H]2C[C@]14N(C)CC3` [METAPHANINE HYDROBROMIDE] were more than 586 µM, more than 117 µM and 58.6 µM.
`COc1ccc2c(c1O)-c1c(OC)c(OC)cc3c1[C@H](C2)N(C)CC3` [ISOCORYDINE]: the IC50 in the assay on KB is more than 733 µM; in the assay on Plasmodium falciparum, 37 µM; in the assay on Entamoeba histolytica [1], more than 147 µM.
In the case of `COc1c(O)ccc2cc3[n+](cc12)CCc1cc2c(cc1-3)OCO2` [THALIFENDINE], the IC50 in the assay with KB is more than 699 µM; in the assay with Plasmodium falciparum, 7.91 µM; with Entamoeba histolytica [1], 116 µM.
Regarding `COc1cc2cc3c4c(c(OC)c5c(c4c2cc1OC)OCO5)CCN3C` [DEHYDROOCOTEINE], the IC50 was more than 341 µM in the assay with KB, 5.78 µM in the assay with Plasmodium falciparum and 136 µM in the assay on Entamoeba histolytica [1].
Taken in the same sequence, the figures for `COc1cc2c(cc1OC)-c1c3c(c(OC)c4ccnc(c14)C2=O)OCO3` [THALICMININE] were more than 685 µM, 16.2 µM and 75.1 µM.
Take `COc1ccc2c(c1OC)CN1CCc3cc4c(cc3[C@@H]1C2)OCO4` [CANADINE]: the IC50 is more than 734 µM in the assay with KB, more than 147 µM in the assay on Plasmodium falciparum and 126 µM with Entamoeba histolytica [1].
Taken in the same sequence, the figures for `COc1ccc2c(c1OC)-c1c(OC)c(OC)cc3c1[C@H](C2)NCC3` [CATALPIFOLINE] were more than 733 µM, 24.1 µM and 147 µM.
For the molecule `COc1cc2c(cc1O)CC[n+]1cc3c(OC)c(OC)ccc3cc1-2` [JATRORRHIZINE CHLORIDE], the IC50 in the assay on KB is more than 335 µM; with Plasmodium falciparum, 3.15 µM; in the assay with Entamoeba histolytica [1], 82.7 µM.
With `COC1=C[C@@H]2[C@@H]3Cc4ccc(OC)c(O)c4[C@]2(CCN3C)CC1=O` [SINOMENINE], the IC50 in the assay on KB is more than 759 µM; with Plasmodium falciparum, more than 152 µM; in the assay on Entamoeba histolytica [1], 56.2 µM.
Turning to `COc1cc2c3c(c1O)-c1c(ccc(OC)c1OC)C[C@@H]3N(C)CC2` [CORYDINE], the IC50 with KB was more than 733 µM; in the assay with Plasmodium falciparum, 22.3 µM; in the assay with Entamoeba histolytica [1], 90.6 µM.
Regarding `COc1cc2c(cc1O)-c1cc3ccc(OC)c(OC)c3c[n+]1CC2` [COLUMBAMINE CHLORIDE], the figures for the IC50 in the assay on KB, in the assay on Plasmodium falciparum and in the assay with Entamoeba histolytica [1] were 77.9 µM, 1.92 µM and 156 µM, respectively.
In the assay on KB, `COc1cc([C@@H]2c3cc4c(cc3[C@H](O)[C@H]3COC(=O)[C@H]23)OCO4)cc(OC)c1OC` [PODOFILOX] had an IC50 of 0.008 µM. In other words, the single-digit nanomolar range.
For the molecule `COc1cc2c3c(c1O)-c1c(ccc(OC)c1OC)C[C@@H]3NCC2` [NORCORYDINE], the IC50 with KB was more than 733 µM; with Plasmodium falciparum it was 3.08 µM; with Entamoeba histolytica [1], 76.4 µM.
As for `COc1ccc2c(c1OC)CN(C)CCc1cc3c(cc1C(=O)C2)OCO3` [ALLOCRYPTOPINE], the concentration for half-maximal inhibition (IC50) is more than 338 µM in the assay with KB, 5.08 µM in the assay on Plasmodium falciparum and 135 µM with Entamoeba histolytica [1].
Consider `COc1cc2c(cc1O)CC[n+]1cc3cc(OC)c(OC)cc3cc1-2` [DEHYDRODISCRETINE CHLORIDE], for which the IC50 in the assay with KB is more than 335 µM; in the assay with Plasmodium falciparum it was 0.639 µM; with Entamoeba histolytica [1], 66.9 µM.
Regarding `COc1ccc2cc3[n+](cc2c1OC)CCc1cc2c(cc1-3)OCO2` [BERBERINE CHLORIDE], the outcome in the assay with Entamoeba histolytica [2] and with Entamoeba histolytica [3] was Active. Moreover, the IC50 stood at 7.32 µM with KB, 0.968 µM with Plasmodium falciparum and 111 µM with Entamoeba histolytica [1].
Take `COC1=C[C@]23CCN(C)[C@H](Cc4ccc(OC)c(O)c42)C3=CC1=O` [SALUTARIDINE]: the IC50 is more than 764 µM with KB, more than 95 µM with Plasmodium falciparum and 76.4 µM in the assay on Entamoeba histolytica [1].
As to `COc1cc2c(cc1OC)-c1c3c(c(OC)c4c1[C@H](C2)N(C)CC4)OCO3` [OCOTEINE], the figures for the IC50 with KB, in the assay on Plasmodium falciparum and with Entamoeba histolytica [1] were 74.3 µM, 34.8 µM and 51.2 µM, respectively.
Regarding `CC[C@H]1CN2CCc3cc(OC)c(OC)cc3[C@@H]2C[C@@H]1C[C@H]1NCCc2cc(OC)c(OC)cc21` [EMETINE HYDROCHLORIDE], the IC50 with Entamoeba histolytica [1] worked out at 2.23 µM. In other words, the single-digit micromolar range.

What is called IC50 is the concentration that inhibits the measured activity by half. A low value points to greater potency.
